Experiments:
[1] = tested on: acute lung injury plus hyperthermia, CD-1 mice; assay: mouse acute lung injury plus hyperthermia model; assay type: in vivo
Protocol: This example provides results of a study to evaluate the effect of denatonium acetate in a mouse acute lung injury plus hyperthermia model. The procedure was three groups of CD-1 mice given (1) saline by gavage for oral administration BID, (2) DA administered oral at a dose of 92.4 mg/kg BID and (3) was DA iv at 3 mg/kg iv bolus QD. Lung lavage fluid was measured and cytokine analysis. Statistics was one-way ANOVA followed by Tukey's multiple comparison post hoc test for data with normal distribution; Kruskal-Wallis test followed by Dunn's multiple comparison post hoc test for data with skewed distribution; and the ROUT method for identifying outliers. Control or drug administered for 3 days, then LPS at 50 μL of 1 mg/ml delivered intratracheally with a Penn Century needle where a core temperature of 39 C at 24 hours post LPS and then sacrifice to measure lung lavage fluid protein concentration and serum cytokine levels.

[2] = tested on: inflammatory biomarkers in tested animals; assay: biomarkers compared across many studies (Table 2); assay type: in vivo; conditions: PO 92.4 mg/kg DA BID
Protocol: The many examples provided herein show the effect of the denatonium salts on various in vivo and in vitro models of various disease indications. In addition, blood samples were taken from the tested (and control) animals and various biomarkers were measured and compared. FIGS. 70A-C show graphs comparing biomarkers across many studies. […] It should be noted that clusters of multiple biomarkers predict effectiveness for each disease indication and that grouping is shown in FIG. 71.

[3] = tested on: DIO mice (C57BL/6NTac, high fat diet); assay: body weight study in diet-induced obese (DIO) mice, 56 days; assay type: in vivo, mouse
Protocol: This example provides results of a study of DA plus another compound (CQL) on body weight in diet-induced (DIO) mice. Adult C57BL/6NTac mice were fed with a high fat diet (60%). Vehicle group (N=15) were treated with distilled water by gavage BID, CQL (N=15) were treated at 50 mg/kg by gavage BID, and DA (N=15) at a dose of 92.4 mg/kg by gavage BID. The study period was for 56 days+2-3 days testing period afterward. […] Metabolic biomarkers were measured on days 28 and 56. Cytokine analysis on Days 28 and 56. Serum levels of GLP-1, GLP-2, and CCK at 1 h after dosing on Days 1 and 56, and at 2 h after dosing on Day 7 (dosing (>6 h fasting prior to dosing until after blood collection); and serum level of PPY on Day 56.

healthy mouse = assay: cytokine profile and routes of administration in healthy mouse; assay type: in vivo; conditions: for VEGF (versus controls): p=0.001
Protocol: This example provides results of a study to evaluate the effect of denatonium acetate on a healthy mouse as measured by cytokine profile and routes of administration of DA. The study groups were: (1) Vehicle group, N=12, treated with distilled water, gavage, BID; (2) DA oral low dose group, N=12, treated with DA at a dose of 23.1 mg/kg (salt weight), gavage, BID; (3) DA oral high dose group, N=12, treated with DA at a dose of 92.4 mg/kg (salt weight), gavage, BID; (4) DA IV low dose group, N=12, treated with DA at a dose of 1 mg/kg (salt weight), iv bolus, QD; (5) DA IV high dose group, N=12, treated with ARD-101 at a dose of 3 mg/kg (salt weight), iv bolus, QD.

[4] = DA 92.4 mg/kg gavage BID, compared to vehicle
[5] = DA 92.4 mg/kg, CQL 50 mg/kg, gavage BID

SMILES: CC(=O)[O-].CC[N+](CC)(CC(=O)Nc1c(C)cccc1C)Cc1ccccc1 [DA, denatonium acetate]
- protein concentration in lung lavage fluid ([1]; iv 3 mg/kg bolus QD): drastic but not significantly reduced
- protein concentration in lung lavage fluid ([1]; oral 92.4 mg/kg BID): drastic but not significantly reduced
- Eotaxin, Decreased Percentage Compared to Vehicle [2]: −18.6%
- G-CSF, Decreased Percentage Compared to Vehicle [2]: −37.5%
- GM-CSF, Decreased Percentage Compared to Vehicle [2]: −2.3%
- IFN-γ, Decreased Percentage Compared to Vehicle [2]: −37.3%
- IL-1α, Decreased Percentage Compared to Vehicle [2]: −18.2%
- IL-1β, Decreased Percentage Compared to Vehicle [2]: −12.0%
- IL-3, Decreased Percentage Compared to Vehicle [2]: −74.5%
- IL-5, Decreased Percentage Compared to Vehicle [2]: −29.1%
- IL-6, Decreased Percentage Compared to Vehicle [2]: −34.2%
- IL-10, Decreased Percentage Compared to Vehicle [2]: −92.5%
- IL-12 (p70), Decreased Percentage Compared to Vehicle [2]: −28.0%
- IL-17, Decreased Percentage Compared to Vehicle [2]: −21.2%
- KC, Decreased Percentage Compared to Vehicle [2]: −21.6%
- LIX, Decreased Percentage Compared to Vehicle [2]: −7.3%
- MCP-1, Decreased Percentage Compared to Vehicle [2]: −24.2%
- MIG, Decreased Percentage Compared to Vehicle [2]: −13.2%
- MIP-1α, Decreased Percentage Compared to Vehicle [2]: −3.4%
- MIP-1β, Decreased Percentage Compared to Vehicle [2]: −10.2%
- MIP-2, Decreased Percentage Compared to Vehicle [2]: −76.3%
- RANTES, Decreased Percentage Compared to Vehicle [2]: −20.6%
- serum glucose levels ([3]; DA 92.4 mg/kg gavage BID): did not show a significant effect
- daily food intake at Day 14 [3, 4]: significantly reduced
- serum CCK levels at Day 56 [3, 4]: significantly increased
- serum GLP-1 levels at Days 7 and 56 [3, 4]: significantly increased
- serum GLP-2 levels at Day 56 [3, 4]: significantly increased
- serum PYY levels at Day 56 [3, 4]: significantly increased
- serum insulin level at Day 28 [3, 4]: significantly reduced
- body weight gain at day 57 ([3]; DA 92.4 mg/kg gavage BID, compared to vehicle and CQL): significantly reduced
- serum LDL levels at days 28 and 56 ([3]; DA 92.4 mg/kg gavage BID, compared to vehicle, no significant difference): noticeable decrease
- serum HbA1c level at Day 28 [3, 5]: significantly reduced
- serum HbA1c level at Day 56 [3, 5]: considerably increased
- daily water intake at Day 28 ([3]; DA 92.4 mg/kg, CQL 50 mg/kg, gavage BID, compared to vehicle): significantly increased
- serum Eotaxin, significance (p) of increase ([3]; day 28): 0.031
- serum G-CSR, significance (p) of increase ([3]; day 28): 0.063
- serum IL-6, significance (p) of increase ([3]; day 28): 0.041
- serum IP-10, significance (p) of increase ([3]; day 28): 0.013
- serum MIG, significance (p) of increase ([3]; day 28): no sig
- serum Eotaxin, significance (p) of increase ([3]; day 56): no sig
- serum G-CSR, significance (p) of increase ([3]; day 56): 0.039
- serum IL-6, significance (p) of increase ([3]; day 56): no sig
- serum IP-10, significance (p) of increase ([3]; day 56): no sig
- serum MIG, significance (p) of increase ([3]; day 56): 0.028
- biomarker (cytokine) effects (healthy mouse; either iv DA dose (1 or 3 mg/kg iv bolus QD)): no biomarker (cytokine) effects
- VEGF (versus controls) (healthy mouse; higher dose oral DA 92.4 mg/kg BID): significant decreases
- IL-9 (versus controls) (healthy mouse; higher dose oral DA 92.4 mg/kg BID, p=0.003): significant decreases
- GM-CSF (versus controls) (healthy mouse; higher dose oral DA 92.4 mg/kg BID, p=0.03): significant decreases
- KC (versus controls) (healthy mouse; higher dose oral DA 92.4 mg/kg BID, p=0.05): significant decreases
- side effects (healthy mouse; iv administration only): toxic side effects
- VEGF (versus controls) (healthy mouse; lower dose oral DA 23.1 mg/kg BID): significant decreases
- G-CSF (versus controls) (healthy mouse; lower dose oral DA 23.1 mg/kg BID, p=0.003): significant decreases
- MCP-1 (versus controls) (healthy mouse; lower dose oral DA 23.1 mg/kg BID, p=0.005): significant decreases
- MIP-2 (versus controls) (healthy mouse; lower dose oral DA 23.1 mg/kg BID, p=0.015): significant decreases
- IL-13 (versus controls) (healthy mouse; lower dose oral DA 23.1 mg/kg BID, p=0.03): significant decreases
- IL-1α (versus controls) (healthy mouse; lower dose oral DA 23.1 mg/kg BID, p=0.04): significant decreases
